Drawing on PubChem BioAssay (NCI), this text covers TGI and GI50 for eight compounds.

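Cells were grown in 96-well plates and exposed to each compound for 48 hours at five concentrations; endpoints were interpolated linearly between bracketing concentrations, or set to the highest concentration if not reached. Here, GI50 denotes the concentration required for 50% inhibition of growth. TGI marks complete inhibition of growth.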

Test systems include A549 NSCLC; RXF 393 renal; HS 578T breast; K-562 leukemia; 786-0 renal; COLO 205 colon; ACHN renal; SK-MEL-5 melanoma; IGROV1 ovarian; NCI-H226 lung.
Test in all cases: NCI tumour cell line growth inhibition, 48 h

In the case of `CN(C)c1ccc(/C=N/NC(=O)c2cnc3ccccc3c2)cc1`, the TGI is more than 100 µM with A549 NSCLC; 54.9 µM in the test with RXF 393 renal; 63.5 µM in the test with HS 578T breast; more than 100 µM in the test with K-562 leukemia; more than 100 µM in the test on 786-0 renal; more than 100 µM in the test on COLO 205 colon. The TGI in the test on ACHN renal, with SK-MEL-5 melanoma, with IGROV1 ovarian and with NCI-H226 lung was more than 100 µM throughout.

Take `COc1cc[nH]c1/C=C1\C(=O)Nc2ccc([N+](=O)[O-])c(N3CC[C@@H](O)C3)c21`: the GI50 is 0.167 µM in the test with A549 NSCLC; 0.0566 µM with RXF 393 renal; 0.353 µM in the test with HS 578T breast; 0.577 µM with K-562 leukemia; 0.186 µM in the test with 786-0 renal; 0.135 µM in the test on COLO 205 colon. Further, the GI50 was 0.0804 µM in the test on ACHN renal, 0.181 µM in the test with SK-MEL-5 melanoma, 0.467 µM with IGROV1 ovarian and 0.169 µM in the test with NCI-H226 lung. The TGI in the test on A549 NSCLC came to 2.18 µM; with RXF 393 renal, 0.146 µM; in the test with HS 578T breast it was 6.33 µM; in the test on K-562 leukemia, 7.57 µM; in the test with 786-0 renal it was 3.56 µM; in the test with COLO 205 colon it was 0.688 µM. Further, the TGI turned out to be 2 µM in the test with ACHN renal, 0.847 µM with SK-MEL-5 melanoma, 4.27 µM in the test on IGROV1 ovarian and 1.69 µM in the test on NCI-H226 lung.

Consider `CNCC1CCn2c(c(C3=C(c4cn(C)c5ccccc45)C(=O)NC3=O)c3ccccc32)C1` (centres undefined), for which the GI50 in the test with A549 NSCLC was 3.16 µM; in the test on RXF 393 renal, 3.09 µM; in the test on HS 578T breast it was 2.9 µM; with K-562 leukemia it was 3.29 µM; with 786-0 renal, 4.88 µM; in the test with COLO 205 colon it was 1.47 µM. In addition, the GI50 in the test on ACHN renal is 3.62 µM; in the test with SK-MEL-5 melanoma, 3.88 µM; in the test on IGROV1 ovarian it was 4.14 µM; in the test with NCI-H226 lung, 3.23 µM. Further, the TGI in the test on A549 NSCLC stood at 10.6 µM; in the test with RXF 393 renal, 6.78 µM; in the test on HS 578T breast, 8.7 µM; in the test on K-562 leukemia it was 8.41 µM; with 786-0 renal, 11 µM; with COLO 205 colon it was 4.77 µM. Also, the TGI in the test with ACHN renal came out at 13.1 µM; with SK-MEL-5 melanoma, 7.97 µM; with IGROV1 ovarian it was 9.9 µM; in the test with NCI-H226 lung, 14.2 µM.

Take `O=C(N/N=C/c1cccc(O)c1)c1ccc(C(F)(F)F)nc1Nc1cccc(C(F)(F)F)c1`: the GI50 with A549 NSCLC was 2.43 µM; in the test on RXF 393 renal, 1.13 µM; with HS 578T breast, 1.86 µM; in the test on K-562 leukemia, 1.19 µM; with 786-0 renal, 1.92 µM; with COLO 205 colon it was 1.44 µM. In addition, the GI50 in the test on ACHN renal was 2.09 µM; in the test on SK-MEL-5 melanoma, 1.21 µM; in the test with IGROV1 ovarian it was 2.65 µM; in the test on NCI-H226 lung it was 1.28 µM. Besides, the TGI in the test on A549 NSCLC came to 7.84 µM; in the test on RXF 393 renal, 8.85 µM; in the test on HS 578T breast, 5.86 µM; in the test with K-562 leukemia it was 2.69 µM; in the test on 786-0 renal it was 5.17 µM; with COLO 205 colon, 2.94 µM. In addition, the TGI in the test on ACHN renal turned out to be 6.35 µM; in the test with SK-MEL-5 melanoma, 2.44 µM; in the test with IGROV1 ovarian, 11.6 µM; in the test on NCI-H226 lung it was 3.51 µM.

On to `CCC(=O)Oc1ccc(/C=N/NC(N)=S)nc1`, for which the GI50 in the test on A549 NSCLC was 35.4 µM; with RXF 393 renal it was 2.93 µM; in the test on HS 578T breast, 30.9 µM; in the test with K-562 leukemia, 5.05 µM; in the test on 786-0 renal, 3.19 µM; in the test on COLO 205 colon it was 27.5 µM. Further, the GI50 is 1.01 µM with ACHN renal, 3.01 µM with SK-MEL-5 melanoma, 9.94 µM in the test with IGROV1 ovarian and 9.72 µM with NCI-H226 lung. Also, the TGI in the test on A549 NSCLC was more than 100 µM; in the test with RXF 393 renal it was more than 100 µM; in the test with HS 578T breast, more than 100 µM; with K-562 leukemia, more than 100 µM; with 786-0 renal, 13.7 µM; with COLO 205 colon, more than 100 µM. For the same compound, the TGI in the test on ACHN renal is 21 µM; in the test with SK-MEL-5 melanoma, 77.2 µM; in the test on IGROV1 ovarian, more than 100 µM; in the test on NCI-H226 lung it was 43.4 µM.

On to `O=C1/C(=C/c2cccc(F)c2)CN(C(=O)C(Cl)Cl)C/C1=C\c1cccc(F)c1`, for which the GI50 in the test with A549 NSCLC is 0.655 µM; in the test with RXF 393 renal, 0.194 µM; in the test on HS 578T breast, 0.303 µM; in the test with K-562 leukemia, 0.0332 µM; with 786-0 renal, 0.217 µM; in the test on COLO 205 colon it was 0.332 µM. The GI50 with ACHN renal was 0.212 µM; with SK-MEL-5 melanoma it was 0.2 µM; with IGROV1 ovarian, 0.209 µM; with NCI-H226 lung, 0.259 µM. Besides, the TGI in the test with A549 NSCLC came to 2.14 µM; in the test with RXF 393 renal, 0.397 µM; with HS 578T breast it was 1.25 µM; in the test on 786-0 renal it was 0.536 µM; with COLO 205 colon, 1.16 µM; with ACHN renal, 0.517 µM. In addition, the TGI in the test on SK-MEL-5 melanoma was determined as 0.431 µM; with IGROV1 ovarian it was 0.531 µM; with NCI-H226 lung it was 0.685 µM.

In the case of `COn1cc(C(=O)N=C(SC)SC)c2ccccc21`, the GI50 with A549 NSCLC was 23.9 µM; in the test on RXF 393 renal it was 25 µM; with HS 578T breast it was 16.7 µM; with K-562 leukemia it was 2.29 µM; in the test on 786-0 renal, 20.4 µM; with COLO 205 colon, 30.2 µM. In addition, the GI50 in the test with ACHN renal is 22 µM; in the test on SK-MEL-5 melanoma it was 15.7 µM; with IGROV1 ovarian, 11.8 µM; in the test with NCI-H226 lung, 14.1 µM. For the same compound, the TGI with A549 NSCLC is 87.6 µM; in the test on RXF 393 renal, 96.2 µM; with HS 578T breast it was 54.3 µM; in the test with K-562 leukemia it was 17.5 µM; with 786-0 renal it was 46.9 µM; with COLO 205 colon, more than 100 µM. In addition, the TGI with ACHN renal worked out at 47.7 µM; in the test with SK-MEL-5 melanoma it was 34.4 µM; in the test on IGROV1 ovarian, 55.5 µM; with NCI-H226 lung, 51.2 µM.

Regarding `CC(C)Cn1cnc2c(SCc3ccccn3)nc(N)nc21`, the TGI with A549 NSCLC, in the test with RXF 393 renal, in the test on HS 578T breast, in the test with K-562 leukemia, in the test on 786-0 renal and in the test on COLO 205 colon was more than 100 µM each time. Also, the TGI with ACHN renal, in the test with SK-MEL-5 melanoma, in the test on IGROV1 ovarian and in the test on NCI-H226 lung was more than 100 µM each time.
